Experimental data from PMC11277489, “Novel Piperazine Derivatives of Vindoline as Anticancer Agents” (International Journal of Molecular Sciences, 2024).

How the values were obtained:
HL-60(TB) = assay: NCI60 one-dose screen (10 μM), Leukemia; assay type: cell-based; details: Homo sapiens, HL-60, read-out: Growth percent rate
SK-MEL-5 = assay: NCI60 one-dose screen (10 μM), Melanoma; assay type: cell-based, human; details: Homo sapiens, SK-MEL-5, read-out: Growth percent rate
[1] = system: 60 human tumor cell lines (NCI60); assay: NCI60 one-dose screen (10 μM), whole panel; assay type: cell-based; details: Homo sapiens, read-out: Growth percent rate, Mean
HCC-2998 = assay: NCI60 one-dose screen (10 μM), Colon Cancer; assay type: cell-based; details: Homo sapiens, HCC 2998, read-out: Growth percent rate
EKVX = assay: NCI60 one-dose screen (10 μM), Non-small Cell Lung Cancer; assay type: cell-based; details: Homo sapiens, read-out: Growth percent rate
MOLT-4 = assay: NCI60 one-dose screen (10 μM), Leukemia; assay type: cell-based, human; details: Homo sapiens, MOLT-4, read-out: Growth percent rate
SF-539 = assay: NCI60 one-dose screen (10 μM), CNS Cancer; assay type: cell-based, human; details: Homo sapiens, SF-539, read-out: Growth percent rate
IGROV1 = assay: NCI60 one-dose screen (10 μM), Ovarian Cancer; assay type: cell-based; details: Homo sapiens, IGROV-1, read-out: Growth percent rate
A498 = assay: NCI60 one-dose screen (10 μM), Renal Cancer; assay type: cell-based; details: Homo sapiens, A498, read-out: Growth percent rate
NCI-H322M = assay: NCI60 one-dose screen (10 μM), Non-small Cell Lung Cancer; assay type: cell-based; details: Homo sapiens, read-out: Growth percent rate
LOX IMVI = assay: NCI60 one-dose screen (10 μM), Melanoma; assay type: cell-based, human; details: Homo sapiens, LOX IMVI, read-out: Growth percent rate
U251 = assay: NCI60 one-dose screen (10 μM), CNS Cancer; assay type: cell-based; details: Homo sapiens, U-251, read-out: Growth percent rate
COLO 205 = assay: NCI60 one-dose screen (10 μM), Colon Cancer; assay type: cell-based, human; details: Homo sapiens, COLO 205, read-out: Growth percent rate
K-562 = assay: NCI60 one-dose screen (10 μM), Leukemia; assay type: cell-based; details: Homo sapiens, K562, read-out: Growth percent rate
NCI-H460 = assay: NCI60 one-dose screen (10 μM), Non-small Cell Lung Cancer; assay type: cell-based; details: Homo sapiens, NCI-H460, read-out: Growth percent rate
UACC-257 = assay: NCI60 one-dose screen (10 μM), Melanoma; assay type: cell-based; details: Homo sapiens, UACC-257, read-out: Growth percent rate
NCI-H522 = assay: NCI60 one-dose screen (10 μM), Non-small Cell Lung Cancer; assay type: cell-based; details: Homo sapiens, NCI-H522, read-out: Growth percent rate
HS 578T = assay: NCI60 one-dose screen (10 μM), Breast Cancer; assay type: cell-based; details: Homo sapiens, Hs-578T, read-out: Growth percent rate
MALME-3M = assay: NCI60 one-dose screen (10 μM), Melanoma; assay type: cell-based; details: Homo sapiens, Malme-3M, read-out: Growth percent rate
SNB-19 = assay: NCI60 one-dose screen (10 μM), CNS Cancer; assay type: cell-based; details: Homo sapiens, SNB-19, read-out: Growth percent rate
OVCAR-8 = assay: NCI60 one-dose screen (10 μM), Ovarian Cancer; assay type: cell-based; details: Homo sapiens, OVCAR-8, read-out: Growth percent rate
RXF 393 = assay: NCI60 one-dose screen (10 μM), Renal Cancer; assay type: cell-based, human; details: Homo sapiens, RXF 393, read-out: Growth percent rate
RPMI-8226 = assay: NCI60 one-dose screen (10 μM), Leukemia; assay type: cell-based; details: Homo sapiens, RPMI-8226, read-out: Growth percent rate
SF-295 = assay: NCI60 one-dose screen (10 μM), CNS Cancer; assay type: cell-based; details: Homo sapiens, SF-295, read-out: Growth percent rate
HCT-116 = assay: NCI60 one-dose screen (10 μM), Colon Cancer; assay type: cell-based; details: Homo sapiens, HCT-116, read-out: Growth percent rate
MCF7 = assay: NCI60 one-dose screen (10 μM), Breast Cancer; assay type: cell-based; details: Homo sapiens, MCF7, read-out: Growth percent rate
SN12C = assay: NCI60 one-dose screen (10 μM), Renal Cancer; assay type: cell-based; details: Homo sapiens, read-out: Growth percent rate
ACHN = assay: NCI60 one-dose screen (10 μM), Renal Cancer; assay type: cell-based; details: Homo sapiens, read-out: Growth percent rate
HOP-62 = assay: NCI60 one-dose screen (10 μM), Non-small Cell Lung Cancer; assay type: cell-based; details: Homo sapiens, HOP-62, read-out: Growth percent rate
HT29 = assay: NCI60 one-dose screen (10 μM), Colon Cancer; assay type: cell-based; details: Homo sapiens, HT-29, read-out: Growth percent rate
HCT-15 = assay: NCI60 one-dose screen (10 μM), Colon Cancer; assay type: cell-based; details: Homo sapiens, HCT-15, read-out: Growth percent rate
CAKI-1 = assay: NCI60 one-dose screen (10 μM), Renal Cancer; assay type: cell-based; details: Homo sapiens, CAKI-1, read-out: Growth percent rate
NCI-H23 = assay: NCI60 one-dose screen (10 μM), Non-small Cell Lung Cancer; assay type: cell-based; details: Homo sapiens, NCI-H23, read-out: Growth percent rate
MDA-MB-435 = assay: NCI60 one-dose screen (10 μM), Melanoma; assay type: cell-based; details: Homo sapiens, MDA-MB-435, read-out: Growth percent rate
786–0 = assay: NCI60 one-dose screen (10 μM), Renal Cancer; assay type: cell-based; details: Homo sapiens, 786-0, read-out: Growth percent rate
OVCAR-4 = assay: NCI60 one-dose screen (10 μM), Ovarian Cancer; assay type: cell-based; details: Homo sapiens, OVCAR-4, read-out: Growth percent rate
A549/ATCC = assay: NCI60 one-dose screen (10 μM), Non-small Cell Lung Cancer; assay type: cell-based; details: Homo sapiens, A549, read-out: Growth percent rate
SK-MEL-28 = assay: NCI60 one-dose screen (10 μM), Melanoma; assay type: cell-based; details: Homo sapiens, SK-MEL-28, read-out: Growth percent rate
TK-10 = assay: NCI60 one-dose screen (10 μM), Renal Cancer; assay type: cell-based; details: Homo sapiens, TK-10, read-out: Growth percent rate
SW-620 = assay: NCI60 one-dose screen (10 μM), Colon Cancer; assay type: cell-based; details: Homo sapiens, SW-620, read-out: Growth percent rate
SF-268 = assay: NCI60 one-dose screen (10 μM), CNS Cancer; assay type: cell-based; details: Homo sapiens, SF-268, read-out: Growth percent rate
M14 = assay: NCI60 one-dose screen (10 μM), Melanoma; assay type: cell-based; details: Homo sapiens, M14, read-out: Growth percent rate

## CCC12C=CCN3CCC4(c5cc(NC(=O)CN6CCN(Cc7ccc(C(F)(F)F)cc7)CC6)c(OC)cc5N(C)C4C(O)(C(=O)OC)C1OC(C)=O)C32 (stereo not drawn) [Compound 18]
HL-60(TB)
  activity at 10 µM: 42.6%
SK-MEL-5
  activity at 10 µM: 21.2%
[1]
  activity at 10 µM: 60.6%
HCC-2998
  activity at 10 µM: 79.1%
EKVX
  activity at 10 µM: 61.6%
MOLT-4
  activity at 10 µM: 16.7%
SF-539
  activity at 10 µM: 73.1%
IGROV1
  activity at 10 µM: 71.3%
A498
  activity at 10 µM: 78.7%
NCI-H322M
  activity at 10 µM: 64.6%
LOX IMVI
  activity at 10 µM: 58.4%
U251
  activity at 10 µM: 74.8%
COLO 205
  activity at 10 µM: 56.5%
K-562
  activity at 10 µM: 43.8%
NCI-H460
  activity at 10 µM: 62.1%
UACC-257
  activity at 10 µM: 80.6%
NCI-H522
  activity at 10 µM: 55.2%
HS 578T
  activity at 10 µM: 62.5%
MALME-3M
  activity at 10 µM: 73.3%
SNB-19
  activity at 10 µM: 47.4%
OVCAR-8
  activity at 10 µM: 72%
RXF 393
  activity at 10 µM: 41%
RPMI-8226
  activity at 10 µM: 17.4%
SF-295
  activity at 10 µM: 75.4%
HCT-116
  activity at 10 µM: 46.4%
MCF7
  activity at 10 µM: 32.6%
SN12C
  activity at 10 µM: 59.3%
ACHN
  activity at 10 µM: 67.3%
HOP-62
  activity at 10 µM: 86.1%
HT29
  activity at 10 µM: 39.3%
HCT-15
  activity at 10 µM: 49.7%
CAKI-1
  activity at 10 µM: 33%
NCI-H23
  activity at 10 µM: 73.1%
MDA-MB-435
  activity at 10 µM: 63.9%
786–0
  activity at 10 µM: 75.5%
OVCAR-4
  activity at 10 µM: 63.1%
A549/ATCC
  activity at 10 µM: 54.1%
SK-MEL-28
  activity at 10 µM: 90.8%
TK-10
  activity at 10 µM: 81.5%
SW-620
  activity at 10 µM: 87%
SF-268
  activity at 10 µM: 65.2%
M14
  activity at 10 µM: 67.2%

## CCC12C=CCN3CCC4(c5cc(NC(=O)CN6CCN(Cc7ccc(F)cc7)CC6)c(OC)cc5N(C)C4C(O)(C(=O)OC)C1OC(C)=O)C32 (stereo not drawn) [Compound 19]
HL-60(TB)
  activity at 10 µM: 101%
SK-MEL-5
  activity at 10 µM: 92.8%
[1]
  activity at 10 µM: 99.6%
HCC-2998
  activity at 10 µM: 102%
EKVX
  activity at 10 µM: 88.8%
MOLT-4
  activity at 10 µM: 78%
SF-539
  activity at 10 µM: 102%
IGROV1
  activity at 10 µM: 113%
A498
  activity at 10 µM: 132%
NCI-H322M
  activity at 10 µM: 98.5%
LOX IMVI
  activity at 10 µM: 99.1%
U251
  activity at 10 µM: 103%
COLO 205
  activity at 10 µM: 101%
K-562
  activity at 10 µM: 74%
NCI-H460
  activity at 10 µM: 129%
UACC-257
  activity at 10 µM: 98.4%
NCI-H522
  activity at 10 µM: 93.5%
HS 578T
  activity at 10 µM: 110%
MALME-3M
  activity at 10 µM: 102%
SNB-19
  activity at 10 µM: 97.2%
OVCAR-8
  activity at 10 µM: 100%
RXF 393
  activity at 10 µM: 90.4%
RPMI-8226
  activity at 10 µM: 94.1%
SF-295
  activity at 10 µM: 99.8%
HCT-116
  activity at 10 µM: 101%
MCF7
  activity at 10 µM: 80%
SN12C
  activity at 10 µM: 103%
ACHN
  activity at 10 µM: 102%
HOP-62
  activity at 10 µM: 106%
HT29
  activity at 10 µM: 108%
HCT-15
  activity at 10 µM: 95%
CAKI-1
  activity at 10 µM: 69.3%
NCI-H23
  activity at 10 µM: 103%
MDA-MB-435
  activity at 10 µM: 103%
786–0
  activity at 10 µM: 92.8%
OVCAR-4
  activity at 10 µM: 102%
A549/ATCC
  activity at 10 µM: 89%
SK-MEL-28
  activity at 10 µM: 109%
TK-10
  activity at 10 µM: 107%
SW-620
  activity at 10 µM: 118%
SF-268
  activity at 10 µM: 102%
M14
  activity at 10 µM: 102%
